Experiment [1] concerns the target T1, hM2 receptor (CHO-K1 cells) (Homo sapiens, UniProt P08172).
T1 construct: expressed in transfected cells; host or cells: CHO-K1 cells
T1 sequence (P08172 1-466): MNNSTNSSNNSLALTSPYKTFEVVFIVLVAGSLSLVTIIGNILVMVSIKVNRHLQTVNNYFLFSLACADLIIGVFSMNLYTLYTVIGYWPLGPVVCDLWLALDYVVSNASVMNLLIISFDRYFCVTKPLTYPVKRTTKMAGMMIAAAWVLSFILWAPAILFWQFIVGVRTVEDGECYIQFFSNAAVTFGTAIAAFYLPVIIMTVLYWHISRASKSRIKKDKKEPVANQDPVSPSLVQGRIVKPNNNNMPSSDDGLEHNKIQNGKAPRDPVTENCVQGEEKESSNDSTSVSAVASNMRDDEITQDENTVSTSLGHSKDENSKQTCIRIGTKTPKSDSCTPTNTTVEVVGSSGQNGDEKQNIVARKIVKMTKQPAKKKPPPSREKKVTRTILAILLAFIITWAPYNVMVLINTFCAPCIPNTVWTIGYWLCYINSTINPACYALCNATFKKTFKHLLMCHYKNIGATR
Nature of the experiment: Blockade of agonist-mediated [35S]GTPγS binding. It is filed as biochemical. The settings on record: CHO-K1 cells expressing hM2; this or a similar assay; read-out: Ki for blockade of oxotremorine-stimulated [35S]GTPγS binding. The procedure: In a second functional assay, the functional potency of test compounds can be determined by measuring the ability of the compounds to block oxotremorine-stimulated [^35S]GTPγS binding in CHO-K1 cells expressing the hM2 receptor.
At the time of use, frozen membranes were thawed and then diluted in assay buffer with a final target tissue concentration of 5-10 μg protein per well. The membranes were briefly homogenized using a Polytron PT-2100 tissue disrupter and then added to the assay plates. The EC90 value (effective concentration for 90% maximal response) for stimulation of [^35S]GTPγS binding by the agonist oxotremorine was determined in each experiment.
To determine the ability of a test compound to inhibit oxotremorine-stimulated [^35S]GTPγS binding, the following was added to each well of 96 well plates: 25 μL of assay buffer with [^35S]GTPγS (0.4 nM), 25 μL of oxotremorine (EC90) and GDP (3 μM), 25 μL of diluted test compound and 25 μL CHO cell membranes expressing the hM2 receptor. […] Microscint-20 scintillation liquid (50 μL) was added to each well, and each plate was sealed and radioactivity counted on a topcounter (PerkinElmer). Data were analyzed by nonlinear regression analysis with the GraphPad Prism Software package (GraphPad Software, Inc., San Diego, Calif.) using the non-linear regression, one-site competition equation. […]
For orientation: GTPγS resists hydrolysis and so accumulates on activated G proteins.

The target in experiment [2] is T1, hM2 receptor (CHO-K1 cells). Nature of the experiment: Blockade of agonist-mediated inhibition of cAMP accumulation. It is filed as cell-based. Particulars: CHO-K1 cells expressing hM2; this or a similar assay; read-out: Ki for blockade of oxotremorine-inhibition of forskolin-mediated cAMP accumulation. The procedure: In this assay, the functional potency of a test compound was determined by measuring the ability of the test compound to block oxotremorine-inhibition of forskolin-mediated cAMP accumulation in CHO-K1 cells expressing the hM2 receptor. cAMP assays were performed in a radioimmunoassay format using the Flashplate Adenylyl Cyclase Activation Assay System with ^125I-cAMP (NEN SMP004B, PerkinElmer Life Sciences Inc., Boston, Mass.), according to the manufacturer's instructions.
Cells were rinsed once with dPBS and lifted with Trypsin-EDTA solution (0.05% trypsin/0.53 mM EDTA) as described in the Cell Culture and Membrane Preparation section above. […] The cell pellet was then re-suspended in 10 mL dPBS, and the cells were counted with a Coulter Z1 Dual Particle Counter (Beckman Coulter, Fullerton, Calif.). […]
To measure oxotremorine inhibition of AC activity, 25 μL forskolin (25 μM final concentration diluted in dPBS), 25 μL diluted oxotremorine, and 50 μL cells were added to agonist assay wells. […] Plates were sealed, incubated overnight at room temperature and counted the next morning on a PerkinElmer TopCount liquid scintillation counter (PerkinElmer Inc., Wellesley, Mass.). The amount of cAMP produced (pmol/well) was calculated based on the counts observed for the samples and cAMP standards, as described in the manufacturer's user manual. […]
For orientation: cAMP levels reflect the balance of adenylyl cyclase and phosphodiesterase activity.

As a reminder, the Ki is a dissociation constant, usually derived from enzyme kinetics or from competition with a known ligand.

Consider `CN(CCN1CCC(OC(=O)Nc2ccccc2-c2ccccc2)CC1)C(=O)c1cccc(C(=O)NCCNCc2ccc(O)cc2)c1` [compound of formula I, biphenyl-2-ylcarbamic acid 1-[2-({3-[2-(4-hydroxybenzylamino)ethylcarbamoyl]benzoyl}methylamino)ethyl]piperidin-4-yl ester], for which the Ki was under 10 nM in experiment [1] and under 5 nM in experiment [2].

The values above are taken from patent US7973055B2, “Crystalline forms of a biphenyl compound” (Theravance, Inc., priority 2006, dated 2011).
